# Where no end group is shown, it is not given here.
# Columns and labels:
# [1] = tested on: OVCA429 cells; format: cell-based, human; conditions: 24 h
# [2] = tested on: normal ovary epithelial cell IOSE80; test: CCK8 cell viability assay; format: cell-based; conditions: 24 h
# Protocol: (§1) A2780, SKOV3, ID8, IOSE80, and HUVEC cells (2.0 × 10^3 per well) were seeded into 96-well plates in 100 μL culture medium. After 24 h of incubation, the medium was replaced with a medium containing various peptide concentrations. The cell viability after the peptide treatment was tested by CCK8 assay. Briefly, after 24 h treatment, 10 μL CCK8 was added to each well and incubated for 2 h. After incubation, the optical density (OD) at 450 nm was detected using a microplate reader. Cell viability was calculated using the formula: (%) = [D-D0]/[ D¯ -D0] × 100%. D was the OD value of the experimental group, D0 represented the OD value of the blank control group, while [ D¯ was the mean OD value of the control group.
# [3] = tested on: human umbilical vein endothelial cells HUVEC; test: CCK8 cell viability assay; format: cell-based; conditions: 24 h
# Protocol: as §1
# [4] = tested on: ID8 cells; format: cell-based, mouse; conditions: 24 h
# Protocol: as §1
# [5] = tested on: ID8-Luc cells; test: Ovarian cancer peritoneal spread mouse model; format: in vivo; conditions: C57BL/6 mice, 5 mpk intraperitoneally every other day, 10 administrations; ascites volume after sacrifice
# Protocol: To create luciferase heredity stable ID8 cells, the PL-luciferase plasmid (Addgene, 21,471) was packaged by co-transfecting it with DVPR and VSVG packing plasmids using PEI in HEK293T. The virus-containing solution was then collected and cell debris was removed through a 0.45 μm filter. After infection, the cells were selected by treating them with 1 μg/mL puromycin for 3 days to eliminate the uninfected ID8 cells. The expression of luciferase in the cells was then confirmed using the Bio-Lumi™ Firefly Luciferase Reporter Gene Assay Kit (RG042S, Beyotime, China).
# The animal experiment followed the Declaration of Helsinki guidelines and was approved by the Guangdong Medical University Animal Ethical Committee (GDY2102330). 5-week-old female C57BL/6 mice were obtained from Yancheng biological company and housed in an SPF laboratory at 26 ℃ with free access to water and food. Mice were intraperitoneally injected with 5 × 10^6 ID8-Luc-puro cells resuspended in 200 μL PBS. […] Body weight was measured every 5 days. After treatment, mice were injected with pentobarbitone and D-luciferin, and the luminescence signals were observed within 15 min using the live imaging system (In-vivo Xtreme, Bruker, USA). The fluorescence intensity was normalized and analyzed by Bruker MI SE software.
# [6] = tested on: SKOV3 cells; format: cell-based, human; conditions: 24 h
# Protocol: as §1
# [7] = tested on: A2780 cells; format: cell-based, human; conditions: 24 h
# Protocol: as §1
sequence,measurement,setting,value
FFKRLRNKFRLMRQAWKDYR [CS-piscidin],IC50,[1],27.4 ± 1.16 µM
same,IC50,[2],35.2 ± 3.14 µM
same,IC50,[3],14.3 ± 3.03 µM
same,IC50,[4],19.8 ± 0.836 µM
same,ascites / cytotoxicity to normal cells in vivo,[5],still produced ascites
same,IC50,[6],37.4 ± 5.09 µM
same,IC50,[7],9.44 ± 0.666 µM
